Assay results reported in patent publication US12685726B2, “Sulfoximines as inhibitors of NaV1.8” (Gruenenthal GmbH, priority 2022, dated 2026).

Biological target: T1, human NaV 1.8 (Homo sapiens, UniProt Q9Y5Y9)
T1 construct: expressed in transfected cells; host or cells: HEK (recombinant cell line)
Experiment: Automated whole-cell patch clamp (Qube384) voltage-clamp recordings of sodium currents in HEK-NaV1.8 cell line
Type: cell-based
Settings: read-out: Potency category (human NaV 1.8 IC50)
Outline: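 HEK cells expressing NaV1.8 with b3, whole-cell automated voltage clamp at room temperature or 19° C.; CsF-based internal, pH 7.4 external. State-dependent (−120 mV, V1/2 4 s, −10 mV test pulses) and 10/20 Hz 40-pulse protocols; ~12 min compound, vehicle-corrected, IC50 by 4-parameter logistic fit.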

T1 sequence (Q9Y5Y9 whole entry): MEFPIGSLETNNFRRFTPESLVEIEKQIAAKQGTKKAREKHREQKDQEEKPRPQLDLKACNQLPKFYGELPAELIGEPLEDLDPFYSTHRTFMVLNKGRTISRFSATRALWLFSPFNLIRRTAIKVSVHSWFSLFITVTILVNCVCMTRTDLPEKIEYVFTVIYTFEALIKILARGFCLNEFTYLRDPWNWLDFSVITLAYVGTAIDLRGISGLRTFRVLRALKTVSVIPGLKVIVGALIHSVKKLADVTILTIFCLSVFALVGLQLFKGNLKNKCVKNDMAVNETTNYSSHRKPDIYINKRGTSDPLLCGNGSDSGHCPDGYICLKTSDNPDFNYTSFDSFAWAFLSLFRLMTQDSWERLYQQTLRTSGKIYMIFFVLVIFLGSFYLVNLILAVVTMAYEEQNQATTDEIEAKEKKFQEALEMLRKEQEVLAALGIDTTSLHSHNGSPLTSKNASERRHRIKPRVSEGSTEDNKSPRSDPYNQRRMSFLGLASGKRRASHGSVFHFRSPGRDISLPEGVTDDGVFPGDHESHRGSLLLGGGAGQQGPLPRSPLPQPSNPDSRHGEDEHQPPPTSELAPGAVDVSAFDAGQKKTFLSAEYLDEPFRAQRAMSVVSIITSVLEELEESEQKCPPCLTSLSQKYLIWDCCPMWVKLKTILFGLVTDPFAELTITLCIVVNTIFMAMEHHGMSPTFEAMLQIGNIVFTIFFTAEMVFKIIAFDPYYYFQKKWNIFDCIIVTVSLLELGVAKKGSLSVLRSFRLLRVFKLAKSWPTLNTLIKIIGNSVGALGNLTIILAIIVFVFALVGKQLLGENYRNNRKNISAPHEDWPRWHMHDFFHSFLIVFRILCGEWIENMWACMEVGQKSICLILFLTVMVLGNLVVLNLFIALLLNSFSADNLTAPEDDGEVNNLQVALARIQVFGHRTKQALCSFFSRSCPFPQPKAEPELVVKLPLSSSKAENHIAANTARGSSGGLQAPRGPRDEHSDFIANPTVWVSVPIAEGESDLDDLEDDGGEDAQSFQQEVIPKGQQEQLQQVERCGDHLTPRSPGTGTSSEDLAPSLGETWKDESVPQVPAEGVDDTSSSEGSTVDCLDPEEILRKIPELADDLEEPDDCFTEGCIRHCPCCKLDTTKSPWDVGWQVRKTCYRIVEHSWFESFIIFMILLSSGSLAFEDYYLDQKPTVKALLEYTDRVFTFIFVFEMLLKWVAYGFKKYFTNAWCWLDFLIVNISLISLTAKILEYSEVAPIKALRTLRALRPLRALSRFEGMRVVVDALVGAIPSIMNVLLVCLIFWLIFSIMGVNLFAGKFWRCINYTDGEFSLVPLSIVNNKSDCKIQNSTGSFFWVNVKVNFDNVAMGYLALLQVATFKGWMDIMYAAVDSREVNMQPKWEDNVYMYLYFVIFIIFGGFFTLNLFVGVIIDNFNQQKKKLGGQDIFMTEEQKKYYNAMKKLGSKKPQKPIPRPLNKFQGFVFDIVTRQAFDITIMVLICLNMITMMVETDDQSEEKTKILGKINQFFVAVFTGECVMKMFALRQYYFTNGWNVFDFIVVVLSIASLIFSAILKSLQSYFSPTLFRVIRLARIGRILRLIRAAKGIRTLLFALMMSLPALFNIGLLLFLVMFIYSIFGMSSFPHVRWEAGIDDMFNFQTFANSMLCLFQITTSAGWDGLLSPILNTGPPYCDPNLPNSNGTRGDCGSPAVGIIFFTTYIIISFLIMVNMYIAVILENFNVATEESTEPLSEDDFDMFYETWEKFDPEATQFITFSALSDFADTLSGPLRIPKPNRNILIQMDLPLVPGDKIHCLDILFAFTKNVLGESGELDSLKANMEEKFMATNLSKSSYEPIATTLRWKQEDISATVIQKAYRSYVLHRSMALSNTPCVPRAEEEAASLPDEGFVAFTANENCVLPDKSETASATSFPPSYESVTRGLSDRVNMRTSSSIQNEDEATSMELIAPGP

Row | SMILES | IC50 [µM]
1 | CS(=N)(=O)c1cc(NC(=O)c2c(C(F)(F)F)c(C3CC3)nn2CC2CC3(C2)CC(F)(F)C3)ccn1 (single isomer, unassigned) [Example 27b, 3-cyclopropyl-1-((6,6-difluorospiro[3.3]heptan-2-yl)methyl)-N-(2-(S-methylsulfonimidoyl)pyridin-4-yl)-4-(trifluoromethyl)-1H-pyrazole-5-carboxamide] | ≤ 0.1
2 | Cc1cc(NC(=O)c2c(C(F)(F)F)c(C3CC3)nn2CC2(C)CC(F)(F)C2)cc(S(C)(=N)=O)n1 (single isomer, unassigned) [Example 50b, 3-cyclopropyl-1-((3,3-difluoro-1-methylcyclobutyl)methyl)-N-(2-methyl-6-(S-methylsulfonimidoyl)pyridin-4-yl)-4-(trifluoromethyl)-1H-pyrazole-5-carboxamide] | ≤ 0.1
3 | CC1(Cn2nc(C3CCC3)c(C(F)(F)F)c2C(=O)Nc2ccnc(S(C)(=N)=O)c2)CC(F)(F)C1 (single isomer, unassigned) [Example 56b, 3-cyclobutyl-1-((3,3-difluoro-1-methylcyclobutyl)methyl)-N-(2-(S-methylsulfonimidoyl)pyridin-4-yl)-4-(trifluoromethyl)-1H-pyrazole-5-carboxamide] | ≤ 0.1
4 | CS(=N)(=O)c1cc(NC(=O)c2c(C(F)(F)F)c(C3CC3)nn2CC23CC(F)(C2)C3)ccn1 (single isomer, unassigned) [Example 25a, 3-cyclopropyl-1-((3-fluorobicyclo[1.1.1]pentan-1-yl)methyl)-N-(2-(S-methylsulfonimidoyl)pyridin-4-yl)-4-(trifluoromethyl)-1H-pyrazole-5-carboxamide] | ≤ 0.1
5 | CS(=N)(=O)c1cc(NC(=O)c2c(C(F)(F)F)c(C3CC3)nn2CC2(F)CC3(CCC3)C2)ccn1 (single isomer, unassigned) [Example 21b, 3-cyclopropyl-1-((2-fluorospiro[3.3]heptan-2-yl)methyl)-N-(2-(S-methylsulfonimidoyl)pyridin-4-yl)-4-(trifluoromethyl)-1H-pyrazole-5-carboxamide] | ≤ 0.1
6 | CC1(Cn2nc(C3CC3)c(C(F)(F)F)c2C(=O)Nc2cccc(S(C)(=N)=O)c2)CC(F)(F)C1 (single isomer, unassigned) [Example 45b, 3-cyclopropyl-1-((3,3-difluoro-1-methylcyclobutyl)methyl)-N-(3-(S-methylsulfonimidoyl)phenyl)-4-(trifluoromethyl)-1H-pyrazole-5-carboxamide] | ≤ 0.1
7 | C[S@@](=N)(=O)c1cc(NC(=O)c2c(C(F)(F)F)c(C3CC3)nn2C[C@]2(C)C[C@@H](C(F)(F)F)C2)ccn1 (single isomer, unassigned) [Example 86c, 3-cyclopropyl-1-(((cis)-1-methyl-3-(trifluoromethyl)cyclobutyl)methyl)-N-(2-(S-methylsulfonimidoyl)pyridin-4-yl)-4-(trifluoromethyl)-1H-pyrazole-5-carboxamide] | ≤ 0.1
8 | C[S@@](=N)(=O)c1cc(NC(=O)c2c(C(F)(F)F)c(C3CC3)nn2C[C@]2(C)C[C@H](C(F)(F)F)C2)ccn1 (single isomer, unassigned) [Example 86a, 3-cyclopropyl-1-(((trans)-1-methyl-3-(trifluoromethyl)cyclobutyl)methyl)-N-(2-(S-methylsulfonimidoyl)pyridin-4-yl)-4-(trifluoromethyl)-1H-pyrazole-5-carboxamide] | ≤ 0.1

Other lines, results leading:

Row | IC50 [µM] | SMILES
9 | ≤ 0.1 | CS(=N)(=O)c1cccc(NC(=O)c2c(C(F)(F)F)c(C34CC(C3)C4)nn2CC2C[C@@H]2C(F)F)c1 (stereo in doubt) [Example 139, 3-(Bicyclo[1.1.1]pentan-1-yl)-1-(((trans)-2-(difluoromethyl)cyclopropyl)methyl)-N-(3-(S-methylsulfonimidoyl)phenyl)-4-(trifluoromethyl)-1H-pyrazole-5-carboxamide]
10 | ≤ 0.1 | CC1(Cn2nc(C34CC(F)(C3)C4)c(C(F)F)c2C(=O)Nc2ccc(F)c(S(C)(=N)=O)c2)CC(F)(F)C1 (single isomer, unassigned) [Example 138b, 1-((3,3-Difluoro-1-methylcyclobutyl)methyl)-4-(difluoromethyl)-N-(4-fluoro-3-(S-methylsulfonimidoyl)phenyl)-3-(3-fluorobicyclo[1.1.1]pentan-1-yl)-1H-pyrazole-5-carboxamide]
11 | ≤ 0.1 | CC1(Cn2nc(C3(C(F)F)CC3)c(C(F)(F)F)c2C(=O)Nc2ccnc(S(C)(=N)=O)c2)CC(F)(F)C1 (single isomer, unassigned) [Example 145a, 1-((3,3-Difluoro-1-methylcyclobutyl)methyl)-3-(1-(difluoromethyl)cyclopropyl)-N-(2-(S-methylsulfonimidoyl)pyridin-4-yl)-4-(trifluoromethyl)-1H-pyrazole-5-carboxamide]
12 | ≤ 0.1 | CS(=N)(=O)c1cc(NC(=O)c2c(C(F)(F)F)c(C3CC3)nn2CC2C(F)(F)C23CCC3)ccn1 (single isomer, unassigned) [Example 136c, 3-Cyclopropyl-1-((2,2-difluorospiro[2.3]hexan-1-yl)methyl)-N-(2-(S-methylsulfonimidoyl)pyridin-4-yl)-4-(trifluoromethyl)-1H-pyrazole-5-carboxamide]
13 | ≤ 0.1 | C[C@@]1(Cn2nc(C3CC3)c(C(F)(F)F)c2C(=O)Nc2ccnc([S@](C)(=N)=O)c2)CC(F)(F)C12CC2 (single isomer, unassigned) [Example 92c, 3-cyclopropyl-1-((6,6-difluoro-4-methylspiro[2.3]hexan-4-yl)methyl)-N-(2-(S-methylsulfonimidoyl)pyridin-4-yl)-4-(trifluoromethyl)-1H-pyrazole-5-carboxamide]
14 | ≤ 0.1 | CS(=N)(=O)c1cc(NC(=O)c2c(C(F)(F)F)c(C3CC3)nn2CC23CC(CC2(F)F)C3)ccn1 (single isomer, unassigned) [Example 103a, 3-cyclopropyl-1-((2,2-difluorobicyclo[2.1.1]hexan-1-yl)methyl)-N-(2-(S-methylsulfonimidoyl)pyridin-4-yl)-4-(trifluoromethyl)-1H-pyrazole-5-carboxamide]
15 | ≤ 0.1 | CS(=N)(=O)c1cc(NC(=O)c2c(C(F)(F)F)c(C3CC3)nn2CC23CCC(F)(CC2)C3)ccn1 (single isomer, unassigned) [Example 106b, 3-cyclopropyl-1-((4-fluorobicyclo[2.2.1]heptan-1-yl)methyl)-N-(2-(S-methylsulfonimidoyl)pyridin-4-yl)-4-(trifluoromethyl)-1H-pyrazole-5-carboxamide]
16 | ≤ 0.1 | C[S@](=N)(=O)c1cccc(NC(=O)c2c(C(F)(F)F)c(C3(F)CC3)nn2CC2C[C@H]2C(F)(F)F)c1 (single isomer, unassigned) [Example 134d, 3-(1-Fluorocyclopropyl)-N-(3-(S-methylsulfonimidoyl)phenyl)-4-(trifluoromethyl)-1-(((trans)-2-(trifluoromethyl)cyclopropyl)methyl)-1H-pyrazole-5-carboxamide]
17 | 1 to 10 | CS(=N)(=O)c1cc(NC(=O)c2c(C(F)(F)F)c(C3CC3)nn2CC2CCC23CNC3)ccn1 (single isomer, unassigned) [Example 153a, 1-((2-Azaspiro[3.3]heptan-5-yl)methyl)-3-cyclopropyl-N-(2-(S-methylsulfonimidoyl)pyridin-4-yl)-4-(trifluoromethyl)-1H-pyrazole-5-carboxamide]
